Results on 28 molecules are retold here after US9156796B2, “Benzoimidazole-carboxylic acid amide derivatives as APJ receptor modulators” (SANOFI, priority 2013, dated 2015).

The experiment concerns the target T1, human apelin receptor (Homo sapiens, UniProt P35414).
T1 construct: expressed in transfected cells
T1 sequence (P35414 1-380): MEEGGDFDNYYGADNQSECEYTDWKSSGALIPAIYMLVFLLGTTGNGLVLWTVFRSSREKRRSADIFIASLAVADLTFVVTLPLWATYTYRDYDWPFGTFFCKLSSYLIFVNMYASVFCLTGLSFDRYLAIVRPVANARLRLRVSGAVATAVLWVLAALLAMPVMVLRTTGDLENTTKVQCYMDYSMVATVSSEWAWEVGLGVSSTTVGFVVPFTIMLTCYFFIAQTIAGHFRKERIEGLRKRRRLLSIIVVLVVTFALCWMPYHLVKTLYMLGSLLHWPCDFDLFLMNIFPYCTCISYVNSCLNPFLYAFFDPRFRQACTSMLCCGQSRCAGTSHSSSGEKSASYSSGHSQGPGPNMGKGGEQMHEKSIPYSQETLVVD
The experiment can be described thus: Determination of agonism on the human apelin receptor by a calcium fluorescence assay (FLIPR). Format: cell-based. The following applies: HEK293 cells stably transfected with human apelin receptor and Giaq protein, Fluo-4 calcium fluorescence, read-out: EC50 (APJ agonism). Summed up:
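Agonist EC50s come from peak intracellular calcium transients recorded by FLIPR Tetra, scaled to the 1 μM apelin-13 maximum per plate. Test system: HEK293 stably transfected with human apelin receptor plus Giaq, Fluo-4-loaded (4 μM, 1 h, 37 °C, pH 7.4 buffer with probenecid); ≥7 concentrations, triplicates.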

As for `CCC(C)Cn1c(Cc2cccs2)nc2cc(C(=O)N[C@@H](CC(C)C)C(=O)O)ccc21` (stereo partly drawn) [Example 113, (S)-4-Methyl-2-{[1-(2-methyl-butyl)-2-thiophen-2-ylmethyl-1H-benzoimidazole-5-carbonyl]-amino}-pentanoic acid], the EC50 (as a rule, the concentration at which the effect is half-maximal) came to 21.7 µM.
With `CCCCC(CO)NC(=O)c1ccc2c(c1)nc(Cc1cccs1)n2C(CC)CC` (stereo not shown) [Example 197, 1-(1-Ethyl-propyl)-2-thiophen-2-ylmethyl-1H-benzoimidazole-5-carboxylic acid (1-hydroxymethyl-pentyl)-amide], the concentration for a half-maximal effect (EC50) was determined as 1.04 µM.
With `CCC(CC)n1c(Cc2cccs2)nc2cc(C(=O)N[C@@H](CC(C)C)C(=O)N3CCCN(Cc4ccccc4)CC3)ccc21` [Example 323, 1-(1-Ethyl-propyl)-2-thiophen-2-ylmethyl-1H-benzoimidazole-5-carboxylic acid [(S)-1-(4-benzyl-[1,4]diazepane-1-carbonyl)-3-methyl-butyl]-amide], the EC50 turned out to be 6.75 µM.
As for `CCC(CC)n1c(Cc2cccs2)nc2cc(C(=O)NC(CC(C)C)C(N)=O)ccc21` (stereo not shown) [Example 171, 1-(1-Ethyl-propyl)-2-thiophen-2-ylmethyl-1H-benzoimidazole-5-carboxylic acid (1-carbamoyl-3-methyl-butyl)-amide], the half-maximal effective concentration (EC50) is 0.748 µM.
Turning to `CCC(CC)n1c(Cc2cccs2)nc2cc(C(=O)N[C@@H](CC(C)C)C(=O)N(C)CCc3ccccc3)ccc21` [Example 264, 1-(1-Ethyl-propyl)-2-thiophen-2-ylmethyl-1H-benzoimidazole-5-carboxylic acid [(S)-3-methyl-1-(methyl-phenethyl-carbamoyl)-butyl]-amide], the EC50 is 3.34 µM.
Regarding `CC(C)C[C@H](NC(=O)c1ccc2c(c1)nc(Cc1cccs1)n2C1CCCCC1C)C(=O)N(C)C` (stereo partly drawn) [Example 216, 1-(2-Methyl-cyclohexyl)-2-thiophen-2-ylmethyl-1H-benzoimidazole-5-carboxylic acid ((S)-1-dimethyl-carbamoyl-3-methyl-butyl)-amide], the EC50 came to 1.73 µM.
Take `CCC(CC)n1c(Cc2cccs2)nc2cc(C(=O)N[C@@H](CC(C)C)C(=O)NC[C@H]3CCCO3)ccc21` [Example 367, 1-(1-Ethyl-propyl)-2-thiophen-2-ylmethyl-1H-benzoimidazole-5-carboxylic acid ((S)-3-methyl-1-{[(R)-1-(tetrahydro-furan-2-yl)methyl]-carbamoyl}-butyl)-amide]: the 50% effective concentration (EC50) was 1.66 µM.
With `CCC(C)Cn1c(Cc2cccs2)nc2cc(C(=O)N[C@@H](CC3CCCCC3)C(=O)O)ccc21` (stereo partly drawn) [Example 145, (S)-3-Cyclohexyl-2-{[1-(2-methyl-butyl)-2-thiophen-2-ylmethyl-1H-benzoimidazole-5-carbonyl]-amino}-propionic acid] the figure was 18 µM; with `CCC(CC)n1c(Cc2cccs2)nc2cc(C(=O)N[C@@H](CC(C)C)C(=O)N3CCCN(Cc4ccc(F)cc4)CC3)ccc21` [Example 324, 1-(1-Ethyl-propyl)-2-thiophen-2-ylmethyl-1H-benzoimidazole-5-carboxylic acid {(S)-1-[4-(4-fluoro-benzyl)-[1,4]diazepane-1-carbonyl]-3-methyl-butyl}-amide], 16.8 µM.
In the case of `CC(C)C[C@H](NC(=O)c1ccc2c(c1)nc(Cc1cccs1)n2C1CCCC1)C(=O)O` [Example 110, (S)-2-[(1-Cyclopentyl-2-thiophen-2-ylmethyl-1H-benzoimidazole-5-carbonyl)-amino]-4-methyl-pentanoic acid] it was 2.03 µM; in that of `CCC(CC)n1c(Cc2cccs2)nc2cc(C(=O)N[C@@H](CC(C)C)C(=O)NCCCN3CC(C)OC(C)C3)ccc21` (stereo partly drawn) [Example 294, 1-(1-Ethyl-propyl)-2-thiophen-2-ylmethyl-1H-benzoimidazole-5-carboxylic acid {(S)-1-[3-(2,6-dimethyl-morpholin-4-yl)-propylcarbamoyl]-3-methyl-butyl}-amide], 0.722 µM.
As to `CCC(CC)n1c(Cc2cccs2)nc2cc(C(=O)N[C@@H](CC(C)C)C(=O)N3CCC(N4CCOCC4)CC3)ccc21` [Example 334, 1-(1-Ethyl-propyl)-2-thiophen-2-ylmethyl-1H-benzoimidazole-5-carboxylic acid [(S)-3-methyl-1-(4-morpholin-4-yl-piperidine-1-carbonyl)-butyl]-amide], the EC50 turned out to be 0.412 µM.
In the case of `CCC(CC)n1c(CC2CCCCC2)nc2cc(C(=O)N[C@@H](CC3CCCCC3)C(=O)O)ccc21` [Example 141, (S)-3-Cyclohexyl-2-{[2-cyclohexylmethyl-1-(1-ethyl-propyl)-1H-benzoimidazole-5-carbonyl]-amino}-propionic acid] it was 23 µM; in that of `CC(C)C[C@@H](CC(=O)O)NC(=O)c1ccc2c(c1)nc(Cc1ccco1)n2C1CCCCC1C` (single isomer, unassigned) [Example 432], 0.032 µM.
Consider `CCCC(CC(=O)O)NC(=O)c1ccc2c(c1)nc(Cc1cccs1)n2[C@@H]1CCCC[C@H]1C` (stereo partly drawn) [Example 55, 3-{[1-((1R,2R)-2-Methyl-cyclohexyl)-2-thiophen-2-ylmethyl-1H-benzoimidazole-5-carbonyl]-amino}-hexanoic acid], for which the half-maximal effective concentration (EC50) was 0.196 µM.
On to `CCC(CC)n1c(Cc2cccs2)nc2cc(C(=O)N[C@@H](CC(C)C)C(=O)NCc3ccc4c(c3)OCO4)ccc21` [Example 239, 1-(1-Ethyl-propyl)-2-thiophen-2-ylmethyl-1H-benzoimidazole-5-carboxylic acid {(S)-1-[(benzo[1,3]dioxol-5-ylmethyl)-carbamoyl]-3-methyl-butyl}-amide], for which the concentration giving a half-maximal response (EC50) worked out at 5.59 µM.
Regarding `CCC(CC)n1c(Cc2cccs2)nc2cc(C(=O)N[C@@H](CC(C)C)C(=O)NCCCN3CCN(Cc4c(F)cccc4Cl)CC3)ccc21` [Example 277, 1-(1-Ethyl-propyl)-2-thiophen-2-ylmethyl-1H-benzoimidazole-5-carboxylic acid ((S)-1-{3-[4-(2-chloro-6-fluoro-benzyl)-piperazin-1-yl]-propylcarbamoyl}-3-methyl-butyl)-amide], the EC50 turned out to be 2.1 µM.
Turning to `CCC(CC)n1c(Cc2cccs2)nc2cc(C(=O)N[C@H](CO)CC3CCCCC3)ccc21` [Example 177, 1-(1-Ethyl-propyl)-2-thiophen-2-ylmethyl-1H-benzoimidazole-5-carboxylic acid ((S)-1-cyclohexylmethyl-2-hydroxy-ethyl)-amide], the EC50 stood at 2.42 µM.
With `CCC(CC)n1c(Cc2cccs2)nc2cc(C(=O)NC(C)(CC(C)C)C(=O)O)ccc21` (stereo not shown) [Example 12, 2-{[1-(1-Ethyl-propyl)-2-thiophen-2-ylmethyl-1H-benzoimidazole-5-carbonyl]-amino}-2,4-dimethyl-pentanoic acid] the figure was 0.818 µM; with `CCC(CC)n1c(CC2CCCC2)nc2cc(C(=O)N[C@@H](CO)CC(C)C)ccc21` [Example 176, 2-Cyclopentylmethyl-1-(1-ethyl-propyl)-1H-benzoimidazole-5-carboxylic acid ((R)-1-hydroxymethyl-3-methyl-butyl)-amide], 8.91 µM.
On to `CC(C)C[C@H](NC(=O)c1ccc2c(c1)nc(CC1CCCC1)n2C1CCCCC1C)C(=O)O` (stereo partly drawn) [Example 150, (S)-2-{[2-Cyclopentylmethyl-1-(2-methyl-cyclohexyl)-1H-benzoimidazole-5-carbonyl]-amino}-4-methyl-pentanoic acid], for which the concentration giving a half-maximal response (EC50) was 2.8 µM.
Regarding `CC(C)C[C@H](NC(=O)c1ccc2c(c1)nc(Cc1cccs1)n2C(C(C)C)C(C)C)C(=O)O` [Example 164, (S)-2-{[1-(1-Isopropyl-2-methyl-propyl)-2-thiophen-2-ylmethyl-1H-benzoimidazole-5-carbonyl]-amino}-4-methyl-pentanoic acid], the concentration for a half-maximal effect (EC50) turned out to be 6.35 µM.
For the molecule `CCCC(NC(=O)c1ccc2c(c1)nc(Cc1cccs1)n2C(CC)CC)C(C)(C)C(=O)O` (single isomer, unassigned) [Example 467], the 50% effective concentration (EC50) was 0.265 µM.
As for `CCC(CC)n1c(Cc2cccs2)nc2cc(C(=O)N[C@@H](CC(C)C)C(=O)NCC3CN(C)CCO3)ccc21` (stereo partly drawn) [Example 343, 1-(1-Ethyl-propyl)-2-thiophen-2-ylmethyl-1H-benzoimidazole-5-carboxylic acid {(S)-3-methyl-1-[(4-methyl-morpholin-2-ylmethyl)-carbamoyl]-butyl}-amide], the EC50 came out at 0.419 µM.
With `C[C@@H]1CCCC[C@H]1n1c(Cc2cccs2)nc2cc(C(=O)NC(CC3CCCC3)C(=O)O)ccc21` (single isomer, unassigned) [Example 443], the EC50 was found to be 1.45 µM.
Regarding `CCC(CC)n1c(CC2CCCC2)nc2cc(C(=O)N[C@H](CO)CC3CCCCC3)ccc21` [Example 167, 2-Cyclopentylmethyl-1-(1-ethyl-propyl)-1H-benzoimidazole-5-carboxylic acid ((S)-1-cyclohexylmethyl-2-hydroxy-ethyl)-amide], the concentration giving a half-maximal response (EC50) was 7.55 µM.
With `CCCOCCNC(=O)[C@H](CC(C)C)NC(=O)c1ccc2c(c1)nc(Cc1cccs1)n2C(CC)CC` [Example 385, 1-(1-Ethyl-propyl)-2-thiophen-2-ylmethyl-1H-benzoimidazole-5-carboxylic acid [(S)-3-methyl-1-(2-propoxy-ethylcarbamoyl)-butyl]-amide], the EC50 stood at 2.51 µM.
Regarding `CCC(CC)n1c(Cc2cccs2)nc2cc(C(=O)N[C@@H](CC(C)C)C(=O)NCCOC(C)C)ccc21` [Example 371, 1-(1-Ethyl-propyl)-2-thiophen-2-ylmethyl-1H-benzoimidazole-5-carboxylic acid [(S)-1-(2-isopropoxy-ethylcarbamoyl)-3-methyl-butyl]-amide], the EC50 was 3.57 µM.
